Drawing on patent US11186554B2, “Non-fused tricyclic compounds” (VIVACE THERAPEUTICS, INC., priority 2017, dated 2021), this text covers IC50 for 29 compounds.

pIC50: −log10 of the molar value.

One assay has as its system firefly luciferase activity. The assay can be described thus: Dual-Glo firefly/renilla luciferase reporter assay in cells. The format is cell-based. The settings on record: 24 h, read-out: Firefly Luciferase IC50 (μM). (In general: In a reporter assay the amount or activity of a reporter protein is the signal.)
As a reminder, the IC50 is the concentration that gives 50% inhibition. `OCCn1nnc(-c2ccccc2Nc2ccc(Cl)cc2)n1` [Compound 208, 2-(5-(2-((4-chlorophenyl)amino)phenyl)-2H-tetrazol-2-yl)ethan-1-ol]: the IC50 was in the range of 0.1 to 1 µM.

Take `NC(=O)Cn1nnc(-c2ccccc2Nc2ccc(C(F)(F)F)cc2)n1` [Compound 102, 2-[5-[2-[4-(trifluoromethyl)anilino]phenyl]tetrazol-2-yl]acetamide]: the IC50 is less than 0.1 µM.

In the case of `CC(O)Cn1nnc(-c2ccccc2Nc2ccc(C(F)(F)F)cc2)n1` (centres unmarked) [Compound 105, 1-[5-[2-[4-(trifluoromethyl)anilino]phenyl]tetrazol-2-yl]propan-2-ol], the IC50 is less than 0.1 µM.

In the case of `OCCn1cnc(-c2ccccc2Nc2ccc(C(F)(F)F)cc2)c1` [Compound 197, 2-(4-(2-((4-(trifluoromethyl)phenyl)amino)phenyl)-1H-imidazol-1-yl)ethan-1-ol], the IC50 is 0.1 to 1 µM.

In the case of `CN(C)C(=O)Cn1nnc(-c2ccccc2Nc2ccc(C(F)(F)F)cc2)n1` [Compound 43, N,N-dimethyl-2-[5-[2-[4-(trifluoromethyl)anilino]phenyl]tetrazol-2-yl]acetamide], the IC50 lay in the range of 0.1 to 1 µM.

Turning to `Cc1ccc(Nc2ccc(C(F)(F)F)cc2)c(-c2nnn(CCO)n2)c1` [Compound 242, 2-(5-(5-methyl-2-((4-(trifluoromethyl)phenyl)amino)phenyl)-2H-tetrazol-2-yl)ethanol], the IC50 was less than 0.1 µM.

`FC(F)(F)c1ccc(Nc2ccccc2-c2nnn(CCOC3CCNCC3)n2)cc1` [Compound 198, 2-(2-(2-(piperidin-4-yloxy)ethyl)-2H-tetrazol-5-yl)-N-(4-(trifluoromethyl)phenyl)aniline]: the IC50 lay within 0.1 to 1 µM.

The same assay, now with this note: 24 hrs compound treatment, starting from 3 uM, 1:3 dilution, 10 points; read-out: Firefly Luciferase IC50.
By pIC50 is commonly meant the IC50 on a negative log10 scale, so that one unit is a factor of ten. For the compound `OCCn1nnc(-c2cc(Br)ccc2Nc2ccc(C(F)(F)F)cc2)n1` [Compound 254, 2-[5-[5-bromo-2-[4-(trifluoromethyl)anilino]phenyl]tetrazol-2-yl]ethanol], the pIC50 is more than 7.00.

For `COCCn1nnc(-c2ccccc2Nc2cccc(C(F)(F)F)c2)n1` [Compound 5, 2-[2-(2-methoxyethyl)tetrazol-5-yl]-N-[3-(trifluoromethyl)phenyl]aniline], the pIC50 is 5.30 to 6.00.

Take `OCC(O)Cn1nnc(-c2ccccc2Nc2ccc(C(F)(F)F)cc2)n1` (centres unmarked) [Compound 114, 3-(5-(2-((4-(trifluoromethyl)phenyl)amino)phenyl)-2H-tetrazol-2-yl)propane-1,2-diol]: the negative-log IC50 (pIC50) is more than 7.00.

Take `OC(Cn1nnc(-c2ccccc2Nc2ccc(C(F)(F)F)cc2)n1)C1CC1` (centres unmarked) [Compound 127, 1-cyclopropyl-2-[5-[2-[4-(trifluoromethyl)anilino]phenyl]tetrazol-2-yl]ethanol]: the pIC50 was more than 7.00.

With `FC(F)(F)Oc1ccc(Nc2ccccc2-c2nnn(Cc3cccnc3)n2)cc1` [Compound 51, 2-[2-(3-pyridylmethyl)tetrazol-5-yl]-N-[4-(trifluoromethoxy)phenyl]aniline], the pIC50 is 5.30 to 6.00.

As to `OC1(Cn2nnc(-c3ccccc3Nc3ccc(C(F)(F)F)cc3)n2)CCCOC1` (centres unmarked) [Compound 142, 3-[[5-[2-[4-(trifluoromethyl)anilino]phenyl]tetrazol-2-yl]methyl]tetra hydropyran-3-ol], the pIC50 is 6.00 to 7.00.

On to `OC1(Cn2nnc(-c3ccccc3Nc3ccc(C(F)(F)F)cc3)n2)CSC1` [Compound 244, 3-[[5-[2-[4-(trifluoromethyl)anilino]phenyl]tetrazol-2-yl]methyl]thietan-3-ol], for which the pIC50 was more than 7.00.

Consider `CS(=O)(=O)NCCCn1nnc(-c2ccccc2Nc2ccc(C(F)(F)F)cc2)n1` [Compound 109, N-(3-(5-(2-((4-(trifluoromethyl)phenyl)amino)phenyl)-2H-tetrazol-2-yl)propyl)methanesulfonamide], for which the pIC50 is 5.30 to 6.00.

On to `CCC(O)Cn1nnc(-c2ccccc2Nc2ccc(C(F)(F)F)cc2)n1` (centres unmarked) [Compound 139, 1-(5-(2-((4-(trifluoromethyl)phenyl)amino)phenyl)-2H-tetrazol-2-yl)butan-2-ol], for which the pIC50 is more than 7.00.

For `CC(N)Cn1nnc(-c2ccccc2Nc2ccc(C(F)(F)F)cc2)n1` (centres unmarked) [Compound 229, 2-(2-(2-aminopropyl)-2H-tetrazol-5-yl)-N-(4-(trifluoromethyl)phenyl)aniline], the pIC50 was 6.00 to 7.00.

As to `C[C@H]([C@@H](C)O)n1nnc(-c2ccccc2Nc2ccc(C(F)(F)F)cc2)n1` [Compound 193, (2R,3R)-3-(5-(2-((4-(trifluoromethyl)phenyl)amino)phenyl)-2H-tetrazol-2-yl)butan-2-ol], the pIC50 was more than 7.00.

Consider `CC(=O)NCCn1nnc(-c2ccccc2Nc2ccc(C(F)(F)F)cc2)n1` [Compound 92, N-[2-[5-[2-[4-(trifluoromethyl)anilino]phenyl]tetrazol-2-yl]ethyl]acetamide], for which the pIC50 is 6.00 to 7.00.

In the case of `CC(C)C(=O)Cn1nnc(-c2ccccc2Nc2ccc(C(F)(F)F)cc2)n1` [Compound 128, 3-methyl-1-[5-[2-[4-(trifluoromethyl)anilino]phenyl]tetrazol-2-yl]butan-2-one], the pIC50 is 6.00 to 7.00.

With `CC(=O)N1CC(O)(Cn2nnc(-c3ccccc3Nc3ccc(C(F)(F)F)cc3)n2)C1` [Compound 161, 1-[3-hydroxy-3-[[5-[2-[4-(trifluoromethyl)anilino]phenyl]tetrazol-2-yl]methyl]azetidin-1-yl]ethanone], the pIC50 was 6.00 to 7.00.

As to `FCCn1nnc(-c2ccccc2Nc2ccc(C(F)(F)F)cc2)n1` [Compound 117, 2-[2-(2-fluoroethyl)tetrazol-5-yl]-N-[4-(trifluoromethyl)phenyl]aniline], the pIC50 is 6.00 to 7.00.

On to `OCCn1nnc(-c2cc(F)ccc2Nc2ccc(C(F)(F)F)cc2)n1` [Compound 175, 2-[5-[5-fluoro-2-[4-(trifluoromethyl)anilino]phenyl]tetrazol-2-yl]ethanol], for which the pIC50 is more than 7.00.

Regarding `OC1(Cn2nnc(-c3ccccc3Nc3ccc(C(F)(F)F)cc3)n2)CCCCC1` [Compound 133, 1-[[5-[2-[4-(trifluoromethyl)anilino]phenyl]tetrazol-2-yl]methyl]cyclohexanol], the pIC50 is 6.00 to 7.00.

As for `FC(F)(F)c1ccc(Nc2ccccc2-c2nnn(C3CCOCC3)n2)cc1` [Compound 122, 2-(2-tetrahydropyran-4-yltetrazol-5-yl)-N-[4-(trifluoromethyl)phenyl]aniline], the pIC50 is 6.00 to 7.00.

Consider `O[C@@H]1CNC[C@H]1n1nnc(-c2ccccc2Nc2ccc(C(F)(F)F)cc2)n1` [Compound 233, (3R,4R)-4-(5-(2-((4-(trifluoromethyl)phenyl)amino)phenyl)-2H-tetrazol-2-yl)pyrrolidin-3-ol], for which the pIC50 is 6.00 to 7.00.

With `COCCn1nnc(-c2ccccc2Nc2ccc(C(F)(F)F)cc2)n1` [Compound 173, 2-(2-(2-methoxyethyl)-2H-tetrazol-5-yl)-N-(4-(trifluoromethyl)phenyl)aniline], the pIC50 was more than 7.00.

For the compound `CN(C)CCCn1nnc(-c2ccccc2Nc2ccc(OC(F)(F)F)cc2)n1` [Compound 63, 2-(2-(3-(dimethylamino)propyl)-2H-tetrazol-5-yl)-N-(4-(trifluoromethoxy)phenyl) Aniline], the pIC50 is 5.30 to 6.00.

Regarding `CNCCn1nnc(-c2ccccc2Nc2ccc(C(F)(F)F)cc2)n1` [Compound 219, 2-(2-(2-(methylamino)ethyl)-2H-tetrazol-5-yl)-N-(4-(trifluoromethyl)phenyl) Aniline], the pIC50 is 6.00 to 7.00.
